The values that follow come from patent US7411002B2, “Polycationic sulfonamides and use thereof” (priority 2006, dated 2008).

Data set [1] concerns LPS-induced lethality in CF-1 mice. Kind of data set: Mouse lethality assay (D-galactosamine-sensitized mice, supralethal LPS challenge). The note with it: FIG. 9; for mice protected from LPS lethality: 200 μg/mouse compound i.p., supralethal 200 ng LPS challenge, lethality at 24 h. Format: in vivo. The text has this: Compound MQTS 2358 represents spermine-sulfonamide Series A (SPM). Compound MQTS 2383 represents homologated spermine-sulfonamide Series B (HOMO-SPM). Compound MQTS 2389 represents branched homologated spermine-sulfonamide Series D (BRANCHED-HOMO-SPM). Also included in FIG. 9 are positive control compounds MQTS 3938 and MQTS 3942 (L-Lys(C18-alkyl)-spermine and D-Lys(C18-alkyl)-spermine, respectively) previously reported.^60 As shown in this figure, i.p. dosing with these compounds affords significant protection from super-lethal challenges with LPS in this model. Dosages of 200 μg/mouse) protected 5 out of 5 mice with all compounds except MQT 2389 which appears to have toxic effects above 50 μg/mouse dosages. Furthermore, treatment with lower dosages of these compounds also affords significant protection from the toxic effects of LPS.
Mouse lethality experiments: Female, outbred, 9- to 11-week-old CF-1 mice (Charles River, Wilmington, Mass.) weighing 22-28 g are used as described elsewhere.^71 Upon arrival, the mice are allowed to acclimatize for a week prior to experimentation, housed 5 per cage in a controlled environment at the AALAC-accredited University of Kansas Animal Care Facility, and allowed access to mouse chow and water ad libitum. The animals are sensitized to the lethal effects of LPS by D-galactosamine.^74-76 The lethal dose causing 100% mortality (LD100) dose of the batch of LPS used (E. coli 0111:B4 procured from Sigma) is first determined by administering D-galactosamine (800 mg/kg) and LPS (0, 10, 20, 50, 100, 200 ng/mouse) as a single injection intraperitoneally (i.p.) in freshly prepared saline to batches of five animals in a volume of 0.2 ml. […] In experiments designed to test dose-response effects of the polycationic sulfonamides in affording protection against LPS-induced lethality, mice received graded doses of compound diluted in saline, i.p., in one flank, immediately before a supralethal (200 ng) LPS challenge, which is administered as a separate i.p. injection into the other flank. In experiments in which the temporal window of protection is to be examined, a fixed dose of 200 μg/mouse of compound is administered at various times, before, or after supralethal (200 ng/mouse) LPS challenge. Lethality is determined at 24 h post LPS challenge.

A short description of data set [2]: Rapid-throughput BODIPY-TR cadaverine (BC) fluorescence displacement assay for binding affinity to LPS. The note with it: half-maximal effective displacement of BODIPY-TR cadaverine probe from LPS; 50 mM Tris buffer, pH 7.4; read-out: Binding affinity (BC displacement) ED50 value. As to the method: Rapid-throughput Fluorescence Displacement Assay for quantifying binding affinities to LPS. […] Polymyxin B (PMB), a peptide antibiotic known to bind and neutralize LPS^65 serves as the positive control and reference compound for every plate, enabling the quantitative assessment of repeatability and reproducibility (CV and Z′ factors) for the assay. Automated liquid handling is performed on a Precision 2000 automated microplate pipetting system, programmed using the Precision Power software, Bio-Tek Instruments Inc., VT, USA. Results are reported as half-maximal effective displacement of probe (ED50) (Tables A-F). In all experiments, Polymyxin B (PMB), a decapeptide antibiotic, known to bind and neutralize LPS,^66-69 is used as a reference compound.

For data set [3], the system named is LPS-induced NF-κB induction in human embryonic kidney 293 cells cotransfected with TLR4, CD14 and MD2. The experiment in a line: Inhibition of LPS induction of NF-κB (seAP reporter) in HEK 293 cells cotransfected with TLR4, CD14 and MD2. Format: cell-based. The note with it: for IC50: Homo sapiens, HEK293, inhibition of LPS-induced NF-κB induction, HEK 293 TLR4/CD14/MD2 reporter cells, read-out: NFκβ inhibition IC50 value. The text has this:
Assessment of Inhibition of Cytokine Induction (NF-κB): The inhibition of induction of NF-κB (a key transcripitional activator of the innate immune system, leading to uncontrolled cytokine release^72,73 which ultimately leads to multiple organ failure and the shock syndrome) is quantified using human embryonic kidney 293 cells cotransfected with TLR4 (LPS receptor), CD14 and MD2 (co-receptors), available from InvivoGen, Inc. (HEK-Bluetm, San Diego, Calif.), as per protocols provided by the vendor. Stable expression of secreted alkaline phosphatase (seAP) under control of NF-κB/AP-1 promoters is inducible by LPS, and extracellulare seAP in the supernatant is proportional to NF-κB induction. seAP is assayed spectrophotometrically using an alkaline phosphatase-specific chromogen at 620 nm using a rapid-throughput, automated protocol employing a Bio-Tek P2000 liquid handler. Results showing the ability of polycationic sulfonamide compounds to inhibit the induction of NF-κB by LPS are shown in Tables A-F.

Data set [4] has as its system LPS-induced nitric oxide production in murine macrophage J774A.1 cells. Kind of data set: NO inhibition (Griess nitrite assay) in LPS-stimulated murine macrophage J774A.1 cells. Format: cell-based. The note with it: Mus musculus, J774.A1, 10 ng/ml LPS, 16 h. As for the experimental part:
Assessment of neutralization of LPS toxicity: NO inhibition activity. Nitric oxide production is measured as total nitrite in murine macrophage J774A.1 cells using the Griess assay^70 as described previously.^71 J774A.1 cells are plated at ˜10^5/ml in a volume of 40 μl/well, in 384-well, flat-bottomed, cell culture treated microtiter plates and subsequently stimulated with 10 ng/ml lipopolysaccharide (LPS). Concurrent to LPS stimulation, serially diluted concentrations of test compounds are added to the cell medium and left to incubate for 16 h. Polymyxin B is used as reference compound in each plate. Positive-(LPS stimulation only) and negative-controls (J774A.1 medium only) are included in each experiment. Nitrite concentrations are measured by adding 40 μl of supernatant to equal volumes of Griess reagents (50 μl/well; 0.1% NED solution in ddH2O and 1% sulfanilamide, 5% phosphoric acid solution in ddH2O) and incubating for 15 minutes at room temperature in the dark. Absorbance at 535 nm is measured using a Molecular Devices Spectramax M2 multifunction plate reader (Sunnyvale, Calif.). Nitrite concentrations are interpolated from standard curves obtained from serially diluted sodium nitrite standards. IC50 values are determined for compounds that neutralize LPS inhibit NO production in a dose-dependent manner (Tables A-F). Results in this assay parallel those in the binding assay.
(The Griess reaction detects nitrite, a stable product of nitric oxide.)

On to `CCCCCCCCCCCCCCCCS(=O)(=O)NCCCNCCCCNCCCN` [MQTS 2358], for which the “mice protected from LPS lethality” value in data set [1] is reported as 5 out of 5. In data set [2], the EC50 came out at 3870 nM. For the same compound, the values for the half-maximal inhibitory concentration (IC50) in data set [3] and in data set [4] were 280 nM and 450 nM, respectively.
On the same counts, the results for `CCCCCCCCCCCCCCCCS(=O)(=O)NCCCNCCCNCCCCNCCCN` [MQTS 2383] are 5 out of 5, 4710 nM, 200 nM and 120 nM.
As to `CCCCCCCCS(=O)(=O)NCCCN(CCCNCCCNCCCCNCCCN)CCCNS(=O)(=O)CCCCCCCC` [MQTS 2389, N^1-Bis[N-octanylsulfonyl-3-aminopropyl]-1,18-diamino-5,9,14-triazaoctadecane], the “dosage above which toxic effects appear” value in data set [1] (i.p. dosing in mouse lethality assay) was “above 50 μg/mouse”. Further, the EC50 in data set [2] amounted to 2620 nM. In addition, the half-maximal inhibitory concentration (IC50) in data set [3] was determined as 300 nM; in data set [4], 320 nM.
For the compound `CCCCCCCCCCS(=O)(=O)NCCCN(CCCNCCCCNCCCN)CCCNS(=O)(=O)CCCCCCCCCC` [MQTS 2419, N^1-Bis[N-decanylsulfonyl-3-aminopropyl]-1,14-diamino-5,10-diazabutadecane], the EC50 in data set [2] came to 2400 nM. In addition, the results for the IC50 in data set [3] and in data set [4] were 5170 nM and 1100 nM, respectively.
For `CCCCCCCCCCCCS(=O)(=O)NCCCN(CCCNCCCCNCCCN)CCCNS(=O)(=O)CCCCCCCCCCCC` [MQTS 2420, N^1-Bis[N-dodecanylsulfonyl-3-aminopropyl]-1,14-diamino-5,10-diazabutadecane], in data set [2], the EC50 turned out to be 3980 nM. In addition, the IC50 was 13200 nM in data set [3] and 2270 nM in data set [4].
With `CCCCCCCC(=O)NCCCN(CCCNCCCCNCCCN)CCCNC(=O)CCCCCCC` [MQTS 2421], the EC50 in data set [2] amounted to 1320 nM. In addition, the IC50 came to 9760 nM in data set [3] and 9020 nM in data set [4]. For the same compound, the “activity in words (LPS binding / cell-based cytokine inhibition, comment on Table F)” value in data set [3] (qualitative comparison with spermine-sulfonamide counterparts) is recorded as “greatly diminished activity”.
In the case of “D-Lys(C18-alkyl)-spermine [MQTS 3942, reference compound]”, the “mice protected from LPS lethality” value in data set [1] was 5 out of 5.
Consider “L-Lys(C18-alkyl)-spermine [MQTS 3938, reference compound]”, for which the “mice protected from LPS lethality” value in data set [1] is 5 out of 5.

Usually IC50 stands for the point on the concentration scale where inhibition reaches its midpoint.
